System: K24384-001-R-PDC complex spheroid viability
Assay: Anticancer human tumor K24384-001-R-PDC patient-derived pancreatic adenocarcinoma cell line growth inhibition
Settings: for IC50: curve of first compound; for viability, T/C: stronger effect = lower value
Source text: Multicellular complex tumor spheroid response to LSD1 Inhibitor Iadademstat in combination with a variety of drugs and investigational agents in selected tumor cell lines
The current study was undertaken to assess response to LSD1 inhibitors in combination with standard-of-care drugs and investigational agents in solid tumor complex spheroid models as well as in the K-562 leukemia. Complex spheroids include a stromal component modeled by human endothelial cells (HUVEC) and fibroblasts modeled by human mesenchymal stem cells (MSCs). The concentration ranges selected for each drug and investigational agent were based upon clinically achievable concentrations if the clinical Cmax of the agent was known.
Compounds. The drugs and investigational agents used in this study are listed on Table 1. All of the agents used, including staurosporine (NSC755774) and gemcitabine (NSC613327), were obtained from the Developmental Therapeutics Program, NCI. FDA-approved anticancer drugs are available from the NCI at http://dtp.nci.nih.gov/branches/dscb/oncology_drugset_explanation.html. Drugs and investigational agents were >95% pure by proton nuclear magnetic resonance (NMR) and liquid chromatography/mass spectrometry (LC/MS). Stock solutions were prepared at 400x in DMSO, stored at -70 degrees C, and diluted in fresh medium prior to their use. The final concentration of DMSO in cell culture wells never exceeded 0.25% (v/v). The FDA-approved anticancer drug set is available from the Developmental Therapeutics Program at https://dtp.cancer.gov/organization/dscb/obtaining/available_plates.htm. All drugs and investigational agents were tested over a range starting from a high concentration at or near the clinical Cmax and decreasing in half-log increments. If the clinical Cmax for an agent had not been determined, the highest concentration tested was 10 microM.
Cell Lines. The patient-derived cancer cell (PDC) lines: 292921-168-R-J2-PDC, K24384-001-R-PDC, and 521955-158-R2-J5-PDC pancreatic carcinomas, 556581-035-R-J1 ovarian carcinoma, 324938-238-R-J1-PDC, 855422-203-R-J1-PDC and 883617-216-R-J1-PDC urothelial bladder carcinomas, 743489-274-T-PDC renal cell carcinoma, 138582-R-J1 Merkel cell tumor, K60290-347-R-J1 and K57222-313-R-J1-PDC glioblastomas, 653999-131-R-J2-PDC, LG0703-F948-PDC, and 349418-098-R-PDC non-small cell lung carcinomas, 885512-296-R-J2-PDC, 171881-019-R-J1-PDC breast carcinomas and 186277-243-T-J2-PDC and 233499-124-R-J2-PDC colon carcinomas were obtained from the NCI Patient-Derived Models Repository (PDMR, https://pdmr.cancer.gov). The established cell lines NCI/ADR-RES (RRID:CVCL_14520 and OVCAR-5 (RRID:CVCL_1628) ovarian carcinomas, 786-O (RRID:CVCL_1051) and A498 (RRID:CVCL_A498) renal cell carcinoma, NCI-H211 (ATCC, cat. CRL-5824; RRID:CVCL_1529), NCI-H196 (ATCC, cat. CRL-5823, RRID:CVCL_1509), SW 1271 (ATCC, cat. CRL-2177, RRID:CVCL_1716) and NCI-H1876 (ATCC, cat. CRL-5902, RRID:CVCL_1503) small cell lung carcinomas, MDA-MB-231 (RRID:CVCL_0062) and MDA-MB-468 (RRID:CVCL_0419)breast carcinomas (10-12). Pooled donor human umbilical vein endothelial cells (HUVEC, Lonza, cat. CC-2519) and human mesenchymal stem cells (hMSC, Lonza, cat. PT-2501) were purchased from Lonza (Walkersville, MD).
Cell Culture. All cells were maintained in an incubator at 37 degrees C and 5% CO2 with 95% humidity. The PDC lines were cultured according to standard operating procedures established by the NCI PDMR (https://pdmr.cancer.gov). Briefly all PDCs were thawed and cultured in Matrigel-coated flasks prepared with a working solution of 1X Ham's F-12 nutrient mix, without supplementation (Invitrogen, Waltham, MA, cat. 11765054), 100 U/mL penicillin-streptomycin (Invitrogen, cat. 15140122), and 2.5% Matrigel (Corning Inc., Corning, NY, cat. 354248) for the first three passages. […]
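Also: spheroids exposed to agents for seven days before luminescence viability reading.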
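For viability, T/C in this document: 100% = DMSO vehicle control viability.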

`COc1cc(C2c3cc4c(cc3C(OC3OC5COC(C)OC5C(O)C3O)C3COC(=O)C23)OCO4)cc(OC)c1O` (stereo not given) + NC1CC1c1ccc(-c2cccc(O)c2)cc1 was tested, and the IC50 (second compound 0.1 µM) was 263 nM, the IC50 (second compound 0.316 µM) was 199 nM and the IC50 (second compound 1 µM) was 238 nM. For the same molecule, the IC50 (second compound 3.16 µM) was 275 nM, the IC50 (second compound 10 µM) was 317 nM and the viability, T/C (second compound 0.1 µM, first compound 0.00949 µM) was 96.9%. It also gave a viability, T/C (second compound 0.1 µM, first compound 0.03 µM) of 76.4%, a viability, T/C (second compound 0.1 µM, first compound 0.0949 µM) of 62.4% and a viability, T/C (second compound 0.1 µM, first compound 0.3 µM) of 47.8%. For the same molecule, the viability, T/C (second compound 0.1 µM, first compound 0.949 µM) was 40.5%, the viability, T/C (second compound 0.1 µM, first compound 3 µM) was 38.2% and the viability, T/C (second compound 0.316 µM, first compound 0.00949 µM) was 83.1%. For the same molecule, the viability, T/C (second compound 0.316 µM, first compound 0.03 µM) was 88.7%, the viability, T/C (second compound 0.316 µM, first compound 0.0949 µM) was 63.4% and the viability, T/C (second compound 0.316 µM, first compound 0.3 µM) was 44.2%. It also gave a viability, T/C (second compound 0.316 µM, first compound 0.949 µM) of 39.9%, a viability, T/C (second compound 0.316 µM, first compound 3 µM) of 34.5% and a viability, T/C (second compound 1 µM, first compound 0.00949 µM) of 74.7%. It also gave a viability, T/C (second compound 1 µM, first compound 0.03 µM) of 77.5%, a viability, T/C (second compound 1 µM, first compound 0.0949 µM) of 60.5% and a viability, T/C (second compound 1 µM, first compound 0.3 µM) of 45.6%. It also gave a viability, T/C (second compound 1 µM, first compound 0.949 µM) of 40.8%, a viability, T/C (second compound 1 µM, first compound 3 µM) of 30.2% and a viability, T/C (second compound 3.16 µM, first compound 0.00949 µM) of 73.5%. For the same molecule, the viability, T/C (second compound 3.16 µM, first compound 0.03 µM) was 82.1%, the viability, T/C (second compound 3.16 µM, first compound 0.0949 µM) was 66% and the viability, T/C (second compound 3.16 µM, first compound 0.3 µM) was 47.9%. The viability, T/C (second compound 3.16 µM, first compound 0.949 µM) was 41.5%, the viability, T/C (second compound 3.16 µM, first compound 3 µM) was 32.8% and the viability, T/C (second compound 10 µM, first compound 0.00949 µM) was 90.7%. It also gave a viability, T/C (second compound 10 µM, first compound 0.03 µM) of 84.9%, a viability, T/C (second compound 10 µM, first compound 0.0949 µM) of 62.8% and a viability, T/C (second compound 10 µM, first compound 0.3 µM) of 53.6%. For the same molecule, the viability, T/C (second compound 10 µM, first compound 0.949 µM) was 41.3% and the viability, T/C (second compound 10 µM, first compound 3 µM) was 42.8%.
With `Nc1ncn(C2CC(O)C(CO)O2)c(=O)n1` (stereo not given) + NC1CC1c1ccc(-c2cccc(O)c2)cc1 the IC50 (second compound 0.1 µM) was greater than 1000 nM, the IC50 (second compound 0.316 µM) was greater than 1000 nM and the IC50 (second compound 1 µM) was greater than 1000 nM. It also gave an IC50 (second compound 3.16 µM) greater than 1000 nM, an IC50 (second compound 10 µM) greater than 1000 nM and a viability, T/C (second compound 0.1 µM, first compound 0.00316 µM) of 89.9%. For the same molecule, the viability, T/C (second compound 0.1 µM, first compound 0.01 µM) was 86.7%, the viability, T/C (second compound 0.1 µM, first compound 0.0316 µM) was 97.5% and the viability, T/C (second compound 0.1 µM, first compound 0.1 µM) was 80.2%. The viability, T/C (second compound 0.1 µM, first compound 0.316 µM) was 70.4%, the viability, T/C (second compound 0.1 µM, first compound 1 µM) was 79% and the viability, T/C (second compound 0.316 µM, first compound 0.00316 µM) was 78.3%. For the same molecule, the viability, T/C (second compound 0.316 µM, first compound 0.01 µM) was 98.4%, the viability, T/C (second compound 0.316 µM, first compound 0.0316 µM) was 86.5% and the viability, T/C (second compound 0.316 µM, first compound 0.1 µM) was 85.3%. For the same molecule, the viability, T/C (second compound 0.316 µM, first compound 0.316 µM) was 78.6%, the viability, T/C (second compound 0.316 µM, first compound 1 µM) was 68.9% and the viability, T/C (second compound 1 µM, first compound 0.00316 µM) was 97.8%. For the same molecule, the viability, T/C (second compound 1 µM, first compound 0.01 µM) was 91.3%, the viability, T/C (second compound 1 µM, first compound 0.0316 µM) was 84% and the viability, T/C (second compound 1 µM, first compound 0.1 µM) was 67.9%. For the same molecule, the viability, T/C (second compound 1 µM, first compound 0.316 µM) was 72.5%, the viability, T/C (second compound 1 µM, first compound 1 µM) was 70.6% and the viability, T/C (second compound 3.16 µM, first compound 0.00316 µM) was 88.4%. It also gave a viability, T/C (second compound 3.16 µM, first compound 0.01 µM) of 88.4%, a viability, T/C (second compound 3.16 µM, first compound 0.0316 µM) of 87.8% and a viability, T/C (second compound 3.16 µM, first compound 0.1 µM) of 79.2%. The viability, T/C (second compound 3.16 µM, first compound 0.316 µM) was 80.1%, the viability, T/C (second compound 3.16 µM, first compound 1 µM) was 82.6% and the viability, T/C (second compound 10 µM, first compound 0.00316 µM) was 101%. For the same molecule, the viability, T/C (second compound 10 µM, first compound 0.01 µM) was 97.2%, the viability, T/C (second compound 10 µM, first compound 0.0316 µM) was 89.4% and the viability, T/C (second compound 10 µM, first compound 0.1 µM) was 90.3%. The viability, T/C (second compound 10 µM, first compound 0.316 µM) was 77.9% and the viability, T/C (second compound 10 µM, first compound 1 µM) was 87.7%.

From PubChem BioAssay AID1918949 (Molecular Pharmacology Branch, DTP, NCI, 2023)
